# Active and inactive are the calls of the source. No cut-off for these calls is given here.
# Columns and labels:
# [1] = biological target: Transcriptional enhancer factor TEF-1 (Homo sapiens) (UniProt P28347); experiment: Inhibition of TEAD transcriptional activity in human HEK293T cells incubated for 24 hrs by luciferase reporter assay; type: cell-based
# [2] = test system: NCI-H226; experiment: Antiproliferative activity against human NCI-H226 cells assessed as cell killing at 10 uM incubated for 3 days by CCK-8 assay; type: functional, cell-based; details: time 3.0 day
# [3] = biological target: T1, von Hippel-Lindau disease tumor suppressor/Transcriptional coactivator YAP1 (Homo sapiens, UniProt P40337+P46937); experiment: PROTAC activity at YAP/VHL in human NCI-H226 cells assessed as induction of YAP degradation incubated for 48 hrs by Western blot analysis; type: cell-based
# Target sequence in this assay (P40337 whole entry): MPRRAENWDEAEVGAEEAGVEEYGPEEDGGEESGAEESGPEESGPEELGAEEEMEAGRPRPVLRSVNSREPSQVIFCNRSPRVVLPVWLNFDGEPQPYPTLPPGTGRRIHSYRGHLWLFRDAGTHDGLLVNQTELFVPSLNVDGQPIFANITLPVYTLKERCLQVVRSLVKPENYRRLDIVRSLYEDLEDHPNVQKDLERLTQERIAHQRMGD
# Target sequence in this assay (P46937 whole entry): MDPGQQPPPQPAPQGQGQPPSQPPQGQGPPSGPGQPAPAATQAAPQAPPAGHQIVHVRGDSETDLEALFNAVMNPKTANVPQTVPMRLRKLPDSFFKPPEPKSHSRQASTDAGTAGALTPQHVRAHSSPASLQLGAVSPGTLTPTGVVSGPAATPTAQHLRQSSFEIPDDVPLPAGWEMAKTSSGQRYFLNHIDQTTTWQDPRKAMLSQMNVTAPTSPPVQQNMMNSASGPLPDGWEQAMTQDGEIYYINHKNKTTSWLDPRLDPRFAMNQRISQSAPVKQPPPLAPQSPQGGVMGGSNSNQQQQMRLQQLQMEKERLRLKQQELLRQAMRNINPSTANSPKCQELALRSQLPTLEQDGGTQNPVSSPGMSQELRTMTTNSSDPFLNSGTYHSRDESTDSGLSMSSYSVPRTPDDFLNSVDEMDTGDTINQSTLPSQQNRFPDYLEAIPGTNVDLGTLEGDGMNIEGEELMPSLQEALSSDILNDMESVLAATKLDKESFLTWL
# [4] = biological target: T1, von Hippel-Lindau disease tumor suppressor/Transcriptional coactivator YAP1; experiment: PROTAC activity at YAP/VHL in human NCI-H226 cells assessed as reduction in CTGF expression incubated for 48 hrs by Western blot analysis; type: cell-based; details: dose 2.5-20 µM
# Target sequence in this assay (P40337 whole entry, looked up): as the sequence (P40337 whole entry) above
# Target sequence in this assay (P46937 whole entry, looked up): as the sequence (P46937 whole entry) above
# [5] = test system: NCI-H226; experiment: Antiproliferative activity against human NCI-H226 cells assessed as cell killing upto 3.13 uM incubated for 4 days by CCK-8 assay; type: functional, cell-based; details: time 4.0 day
# [6] = biological target: T1, von Hippel-Lindau disease tumor suppressor/Transcriptional coactivator YAP1; experiment: PROTAC activity at YAP/VHL in human NCI-H226 cells assessed as induction of YAP degradation 10 uM incubated for 48 hrs by Western blot analysis; type: cell-based
# Target sequence in this assay (P40337 whole entry, looked up): as the sequence (P40337 whole entry) above
# Target sequence in this assay (P46937 whole entry, looked up): as the sequence (P46937 whole entry) above
# [7] = biological target: T2, Protein cereblon/Transcriptional coactivator YAP1 (Homo sapiens) (UniProt P46937+Q96SW2); experiment: PROTAC activity at YAP/CRBN in human NCI-H226 cells assessed as induction of YAP degradation at 10 uM incubated for 48 hrs by Western blot analysis; type: cell-based
# T2 sequence (P46937 whole entry, looked up): as the sequence (P46937 whole entry) above
# T2 sequence (Q96SW2 whole entry, looked up): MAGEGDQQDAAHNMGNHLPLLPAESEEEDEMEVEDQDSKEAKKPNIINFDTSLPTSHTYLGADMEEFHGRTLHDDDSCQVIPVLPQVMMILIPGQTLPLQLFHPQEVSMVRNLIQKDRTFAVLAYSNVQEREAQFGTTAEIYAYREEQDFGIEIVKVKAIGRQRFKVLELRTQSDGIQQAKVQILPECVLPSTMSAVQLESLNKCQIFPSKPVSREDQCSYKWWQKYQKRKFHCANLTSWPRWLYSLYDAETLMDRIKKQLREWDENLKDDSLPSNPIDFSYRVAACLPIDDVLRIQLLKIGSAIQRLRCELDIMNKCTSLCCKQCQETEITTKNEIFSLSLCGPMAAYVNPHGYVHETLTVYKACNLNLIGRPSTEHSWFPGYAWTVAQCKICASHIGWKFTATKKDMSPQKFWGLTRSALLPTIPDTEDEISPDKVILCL
# [8] = test system: NCI-H226; experiment: Antiproliferative activity against human NCI-H226 cells assessed as cell growth inhibition incubated for 3 days by CCK-8 assay; type: functional, cell-based; details: time 3.0 day
# [9] = biological target: T2, Protein cereblon/Transcriptional coactivator YAP1 (Homo sapiens); experiment: PROTAC activity at YAP/CRBN in human NCI-H226 cells assessed as induction of YAP degradation 10 uM incubated for 48 hrs by Western blot analysis; type: cell-based
# [10] = test system: NCI-H226; experiment: Antiproliferative activity against NF2 deficient- human NCI-H226 cells assessed as maximum cell growth inhibition incubated for 4 days by CCK-8 assay relative to control; type: functional; details: time 4 day
# [11] = test system: NCI-H226; experiment: Antiproliferative activity against NF2 deficient- human NCI-H226 cells assessed as cell growth inhibition incubated for 4 days by CCK-8 assay; type: functional, cell-based; details: NCI-H226, 96 h
# [12] = test system: Huh-7; experiment: Antiproliferative activity against human Huh-7 cells overexpressing YAP assessed as cell growth inhibition incubated for 4 days by CCK-8 assay; type: functional, cell-based; details: Huh-7, 96 h
# [13] = biological target: T1, von Hippel-Lindau disease tumor suppressor/Transcriptional coactivator YAP1; experiment: PROTAC activity at YAP/VHL in human NCI-H226 cells assessed as induction of YAP degradation at 10 uM incubated for 48 hrs by Western blot analysis; type: cell-based
# Target sequence in this assay (P40337 whole entry, looked up): as the sequence (P40337 whole entry) above
# Target sequence in this assay (P46937 whole entry, looked up): as the sequence (P46937 whole entry) above
# [14] = test system: Huh-7; experiment: Antitumor activity against human Huh-7 cells xenografted in immunodeficient male NSG mouse assessed as tumor growth inhibition at 100 mg/kg, po administered every 3 days for 24 days; type: functional; details: Huh-7, 576 h, time 24 day, read-out: TGI
# [15] = biological target: T2, Protein cereblon/Transcriptional coactivator YAP1 (Homo sapiens); experiment: PROTAC activity at YAP/CRBN in human NCI-H226 cells assessed as effect on YAP level at 10 uM incubated for 48 hrs by Western blot analysis; type: cell-based
# [16] = test system: NCI-H226; experiment: Antiproliferative activity against human NCI-H226 cells assessed as cell killing at 12.5 uM incubated for 3 days by CCK-8 assay; type: functional, cell-based; details: time 3.0 day
# [17] = biological target: T1, von Hippel-Lindau disease tumor suppressor/Transcriptional coactivator YAP1; experiment: PROTAC activity at YAP/VHL in human NCI-H226 cells assessed as reduction in YAP level at 10 uM incubated for 48 hrs by Western blot analysis; type: cell-based
# Target sequence in this assay (P40337 whole entry, looked up): as the sequence (P40337 whole entry) above
# Target sequence in this assay (P46937 whole entry, looked up): as the sequence (P46937 whole entry) above
# [18] = biological target: Transcriptional coactivator YAP1 (Homo sapiens) (UniProt P46937); experiment: Induction of YAP degradation in human NCI-H290 cells at 5 uM relative to control; type: cell-based
# Chain of Transcriptional coactivator YAP1 (Homo sapiens) (P46937 whole entry): as above
# [19] = biological target: T1, von Hippel-Lindau disease tumor suppressor/Transcriptional coactivator YAP1; experiment: PROTAC activity at YAP/VHL in human NCI-H226 cells assessed as effect on YAP level at 10 uM incubated for 48 hrs by Western blot analysis; type: cell-based
# Target sequence in this assay (P40337 whole entry, looked up): as the sequence (P40337 whole entry) above
# Target sequence in this assay (P46937 whole entry, looked up): as the sequence (P46937 whole entry) above
# Chain of Transcriptional enhancer factor TEF-1 (Homo sapiens) (P28347 whole entry): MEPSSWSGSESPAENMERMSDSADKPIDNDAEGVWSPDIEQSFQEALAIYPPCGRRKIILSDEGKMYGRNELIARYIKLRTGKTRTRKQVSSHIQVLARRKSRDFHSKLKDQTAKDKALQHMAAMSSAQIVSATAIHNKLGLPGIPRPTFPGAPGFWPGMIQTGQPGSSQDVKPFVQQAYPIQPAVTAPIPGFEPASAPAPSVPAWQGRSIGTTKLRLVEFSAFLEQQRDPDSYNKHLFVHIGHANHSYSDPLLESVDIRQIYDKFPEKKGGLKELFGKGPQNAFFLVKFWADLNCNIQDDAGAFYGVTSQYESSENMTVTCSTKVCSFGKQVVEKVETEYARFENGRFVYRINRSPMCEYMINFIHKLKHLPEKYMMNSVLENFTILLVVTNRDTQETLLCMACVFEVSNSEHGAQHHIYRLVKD
compound,measurement,setting,value
COc1ccc(-c2cc(-c3ccccc3)nc3c2CC(=O)Nc2ccccc2-3)cc1O,TEAD transcriptional inhibition (active/inactive call),[1],Active
COc1cc(-c2cc(-c3ccccc3)nc3c2CC(=O)Nc2ccccc2-3)ccc1OCCOCC(=O)N[C@H](C(=O)N1C[C@H](O)C[C@H]1C(=O)N[C@@H](C)c1ccc(-c2scnc2C)cc1)C(C)(C)C,Activity,[2],inactive
same,DC50,[3],14.9 µM
same,Activity,[4],Dose-Dependent Effect
COc1cc(-c2cc(-c3ccccc3)nc3c2CC(=O)Nc2ccccc2-3)ccc1OCCCCCCCC(=O)N[C@H](C(=O)N1C[C@H](O)C[C@H]1C(=O)N[C@@H](C)c1ccc(-c2scnc2C)cc1)C(C)(C)C,Activity,[2],inactive
COc1ccc(-c2cc(-c3ccc(OCCCCCCCCCC(=O)N[C@H](C(=O)N4C[C@H](O)C[C@H]4C(=O)N[C@@H](C)c4ccc(-c5scnc5C)cc4)C(C)(C)C)cc3)nc3c2CC(=O)Nc2ccccc2-3)cc1OC,Activity,[5],inactive
same,Activity,[6],inactive
COc1ccc(-c2cc(-c3ccc(OCCCCCCCC(=O)N[C@H](C(=O)N4C[C@H](O)C[C@H]4C(=O)N[C@@H](C)c4ccc(-c5scnc5C)cc4)C(C)(C)C)cc3)nc3c2CC(=O)Nc2ccccc2-3)cc1OC,Activity,[5],inactive
same,Activity,[6],inactive
COc1ccc(-c2cc(-c3ccccc3)nc3c2CC(=O)Nc2ccccc2-3)cc1OCC(=O)NCCOCCNc1cccc2c1C(=O)N(C1CCC(=O)NC1=O)C2=O (configuration not stated),Activity,[2],inactive
same,Activity,[7],inactive
same,Activity,[8],Active
COc1ccc(-c2cc(-c3ccc(OCCOCCOCCC(=O)N[C@H](C(=O)N4C[C@H](O)C[C@H]4C(=O)N[C@@H](C)c4ccc(-c5scnc5C)cc4)C(C)(C)C)cc3)nc3c2CC(=O)Nc2ccccc2-3)cc1OC,Activity,[5],inactive
same,Activity,[6],inactive
COc1cc(-c2cc(-c3ccccc3)nc3c2CC(=O)Nc2ccccc2-3)ccc1OCC(=O)NCCOCCOCCNc1cccc2c1C(=O)N(C1CCC(=O)NC1=O)C2=O (configuration not stated),Activity,[2],inactive
COc1ccc(-c2cc(-c3ccc(OCCCCCC(=O)N[C@H](C(=O)N4C[C@H](O)C[C@H]4C(=O)N[C@@H](C)c4ccc(-c5scnc5C)cc4)C(C)(C)C)cc3)nc3c2CC(=O)Nc2ccccc2-3)cc1OC,Activity,[5],inactive
same,Activity,[6],inactive
COc1ccc(-c2cc(-c3ccc(OCC(=O)NCCOCCOCCOCCNc4cccc5c4C(=O)N(C4CCC(=O)NC4=O)C5=O)cc3)nc3c2CC(=O)Nc2ccccc2-3)cc1OC (configuration not stated),Activity,[5],inactive
same,Activity,[9],inactive
COc1ccc(-c2cc(-c3ccccc3)nc3c2CC(=O)Nc2ccccc2-3)cc1OC,inhibition (INH),[10],95%
same,IC50,[11],3.9 µM
same,IC50,[12],69 µM
COc1cc(-c2cc(-c3ccccc3)nc3c2CC(=O)Nc2ccccc2-3)ccc1OCCCCCC(=O)N[C@H](C(=O)N1C[C@H](O)C[C@H]1C(=O)N[C@@H](C)c1ccc(-c2scnc2C)cc1)C(C)(C)C,Activity,[2],inactive
COc1ccc(-c2cc(-c3ccccc3)nc3c2CC(=O)Nc2ccccc2-3)cc1OCc1ccccc1,TEAD transcriptional inhibition (active/inactive call),[1],Active
COc1ccc(-c2cc(-c3ccccc3)nc3c2CC(=O)Nc2ccccc2-3)cc1OCCOCC(=O)N[C@H](C(=O)N1C[C@H](O)C[C@H]1C(=O)N[C@@H](C)c1ccc(-c2scnc2C)cc1)C(C)(C)C,Activity,[13],inactive
same,Activity,[2],inactive
same,Activity,[8],Active
CNC(=O)c1cc(Oc2ccc(NC(=O)Nc3ccc(Cl)c(C(F)(F)F)c3)cc2)ccn1 [SORAFENIB],inhibition in vivo at 100 mg/kg,[14],76%
COc1cc(-c2cc(-c3ccccc3)nc3c2CC(=O)Nc2ccccc2-3)ccc1OCCOCCC(=O)N[C@H](C(=O)N1C[C@H](O)C[C@H]1C(=O)N[C@@H](C)c1ccc(-c2scnc2C)cc1)C(C)(C)C,Activity,[2],inactive
COc1cc(-c2cc(-c3ccccc3)nc3c2CC(=O)Nc2ccccc2-3)ccc1OCC(=O)NCCOCCOCCOCCNc1cccc2c1C(=O)N(C1CCC(=O)NC1=O)C2=O (configuration not stated),Activity,[15],inactive
same,Activity,[16],inactive
COc1cc(-c2cc(-c3ccccc3)nc3c2CC(=O)Nc2ccccc2-3)ccc1OCCOCCOCCOCCC(=O)N[C@H](C(=O)N1C[C@H](O)C[C@H]1C(=O)N[C@@H](C)c1ccc(-c2scnc2C)cc1)C(C)(C)C,Activity,[2],inactive
same,Activity,[17],Active
CN[C@@H](C)C(=O)N[C@H](C(=O)N1CCC[C@H]1c1nc(C(=O)c2cccc(OCCOCCNC(=O)[C@]34CC[C@@H](C(C)=O)[C@@H]3[C@H]3CC[C@@H]5[C@@]6(C)CC[C@H](O)C(C)(C)[C@@H]6CC[C@@]5(C)[C@]3(C)CC4)c2)cs1)C1CCCCC1,Activity,[18],< 50%
COc1cc(-c2cc(-c3ccccc3)nc3c2CC(=O)Nc2ccccc2-3)ccc1O,TEAD transcriptional inhibition (active/inactive call),[1],Active
CC(=O)c1ccc(OCc2ccccc2)cc1,TEAD transcriptional inhibition (active/inactive call),[1],Active
COc1ccc(-c2cc(-c3ccccc3)nc3c2CC(=O)Nc2ccccc2-3)cc1OCCOCCOCCC(=O)N[C@H](C(=O)N1C[C@H](O)C[C@H]1C(=O)N[C@@H](C)c1ccc(-c2scnc2C)cc1)C(C)(C)C,Activity,[13],inactive
same,Activity,[2],inactive
same,Activity,[8],Active
COc1ccc(-c2cc(-c3ccc(OCC(=O)NCCOCCNc4cccc5c4C(=O)N(C4CCC(=O)NC4=O)C5=O)cc3)nc3c2CC(=O)Nc2ccccc2-3)cc1OC (configuration not stated),Activity,[5],inactive
same,Activity,[9],inactive
COc1ccc(-c2cc(-c3ccccc3)nc3c2CC(=O)Nc2ccccc2-3)cc1OCCOC(C)=O,TEAD transcriptional inhibition (active/inactive call),[1],Active
COc1ccc(-c2cc(-c3ccccc3)nc3c2CC(=O)Nc2ccccc2-3)cc1OCCOCCC(=O)N[C@H](C(=O)N1C[C@H](O)C[C@H]1C(=O)N[C@@H](C)c1ccc(-c2scnc2C)cc1)C(C)(C)C,Activity,[13],inactive
same,Activity,[2],inactive
same,Activity,[8],Active
COc1ccc(-c2cc(-c3ccccc3)nc3c2CC(=O)Nc2ccccc2-3)cc1OCC(=O)NCCOCCOCCNc1cccc2c1C(=O)N(C1CCC(=O)NC1=O)C2=O (configuration not stated),Activity,[2],inactive
same,Activity,[7],inactive
same,Activity,[8],Active
COc1ccc(-c2cc(-c3ccccc3)nc3c2CC(=O)Nc2ccccc2-3)cc1OCC(=O)NCCOCCOCCOCCNc1cccc2c1C(=O)N(C1CCC(=O)NC1=O)C2=O (configuration not stated),Activity,[2],inactive
same,Activity,[7],inactive
same,Activity,[8],Active
COc1cc(-c2cc(-c3ccccc3)nc3c2CC(=O)Nc2ccccc2-3)ccc1OCCOC(C)=O,TEAD transcriptional inhibition (active/inactive call),[1],Active
COc1ccc(-c2cc(-c3ccc(OCC(=O)NCCOCCOCCNc4cccc5c4C(=O)N(C4CCC(=O)NC4=O)C5=O)cc3)nc3c2CC(=O)Nc2ccccc2-3)cc1OC (configuration not stated),Activity,[5],inactive
same,Activity,[9],inactive
COc1cc(-c2cc(-c3ccccc3)nc3c2CC(=O)Nc2ccccc2-3)ccc1OCC(=O)NCCOCCNc1cccc2c1C(=O)N(C1CCC(=O)NC1=O)C2=O (configuration not stated),Activity,[2],inactive
COc1cc(-c2cc(-c3ccccc3)nc3c2CC(=O)Nc2ccccc2-3)ccc1OCCCCCCCCCC(=O)N[C@H](C(=O)N1C[C@H](O)C[C@H]1C(=O)N[C@@H](C)c1ccc(-c2scnc2C)cc1)C(C)(C)C,Activity,[19],inactive
same,Activity,[16],inactive

# Source: ChEMBL document CHEMBL5584348, “Exploring Degradation of Intrinsically Disordered Protein Yes-Associated Protein Induced by Proteolysis TArgeting Chimeras” (J Med Chem, 2024)
